Results taken from patent US12473258B2, “Crystal form of pyridinylphenyl compound and preparation method therefor” (ZHUHAI UNITED LABORATORIES CO., LTD., priority 2020, dated 2025).

Legend:
[1] = 25° C. competition experiment of water activity (suspension and beating, XRPD); type: physicochemical; details: competition of crystal form B and crystal form C
Procedure: If the solution was clear, the compound was continued to add until the solution was saturated. […] After addition of a magnetic stir bar, the above suspension sample was placed on a constant temperature mixer (25° C., 700 rpm) for shaking.
And the products obtained with water activity of 0.9 and 1.0 were characterized after drying, and the two were almost the same.

[2] = Pre-stability experiment of the crystal form (influencing factors and accelerated conditions, crystal form by XRPD); type: physicochemical
Procedure: X-Ray Powder Diffractometer (XRPD) Method in the Present Disclosure
Instrument model: Bruker D8 Advance X-ray diffractometer
Test method: About 10 mg of sample is used for XRPD test.
The detailed XRPD parameters are as follows:
The samples were fully exposed. Samples under the test condition of 40° C., 25° C./92.5% RH, light, light control were taken at 5 days and 10 days for analysis, and samples under the accelerated condition were taken at 1 month, 2 months and 3 months for analysis.

[3] = Tolerability of eye drops after administration in animals; type: in vivo; details: eye drops with the highest concentration
[4] = tested on: dry eye model of rat induced by hypertonic sodium chloride solution; experiment: Hyperosmolar dry eye model of rats induced by hypertonic sodium chloride solution, eye drop administration; type: in vivo, SD rats
Procedure: 20 female SD rats qualified for the adaptability observation were subjected to the scoring of fluorescent staining of the cornea and measurement of tear secretion amount of both eyes for the animals, and animals with abnormalities of problematic fluorescent staining of the cornea and significant differences in tear secretion amount were excluded.
A pipette was used to draw 20 μL of sodium chloride solution (osmotic pressure of 500 mOsmol/L), which was dropped into the conjunctival sac of both eyes of the animal, 5 times/day, 20 μL/time, with an interval of about 2 hours between each time, for 28 consecutive days. After dropping the solution, the animal's eyelids were passively closed for about 90 s. On the 14th day of the modeling period, the animals were subjected to scoring of fluorescent staining of the cornea of both eyes and measurement of tear secretion amount, and the data were compared with the basic data, and the animals with significant differences in tear secretion amount of both eyes were selected for grouping.
, the tear secretion amount of both eyes was measured, and the scoring of fluorescent staining of the cornea […]

[5] = tested on: dry eye model of mice induced by scopolamine hydrobromide solution; experiment: Dry eye model of mice induced by subcutaneous scopolamine hydrobromide solution, eye drop administration; type: in vivo, C57BL/6 mice
Procedure: The grouping day was recorded as DO. After divided into groups, Animals in each group were subjected to modeling, eye drop administration, scoring of corneal fluorescent staining, tear secretion measurement, etc., according to the experimental settings.

[6] = rats, 1 mg/mL eye drops (G2), D0
[7] = rats, 1 mg/mL eye drops (G2), D14
[8] = rats, 1 mg/mL eye drops (G2), D21
[9] = rats, 5 mg/mL eye drops (G3), D0
[10] = rats, 5 mg/mL eye drops (G3), D14
[11] = rats, 5 mg/mL eye drops (G3), D21
[12] = mice, 1 mg/mL eye drops (G3), D0 (grouping day)
[13] = mice, 1 mg/mL eye drops (G3), D7
[14] = mice, 1 mg/mL eye drops (G3), D12
[15] = mice, 2.5 mg/mL eye drops (G4), D0 (grouping day)
[16] = mice, 2.5 mg/mL eye drops (G4), D7
[17] = mice, 2.5 mg/mL eye drops (G4), D12
[18] = mice, 5 mg/mL eye drops (G5), D0 (grouping day)
[19] = mice, 5 mg/mL eye drops (G5), D7
[20] = mice, 5 mg/mL eye drops (G5), D12

## CC(C)(O)c1ccc(-c2cnc(C(C)(C)O)c(N)c2)cc1N
[1]
  Relative stability of crystal forms (conclusion): more stable than the crystal form C of the compound of formula (I)
[2]; 25° C./92.5% RH (open), 5 days
  Crystal Form: Crystal Form B
[2]; 25° C./92.5% RH (open), 10 days
  Crystal Form: Crystal Form B
[2]; 40° C. (open), 1 month
  Crystal Form: Crystal Form B
[2]; 40° C. (open), 10 days
  Crystal Form: Crystal Form B
[2]; 40° C./75% RH (open), 1 month
  Crystal Form: Crystal Form B
[2]; 40° C./75% RH (open), 2 month
  Crystal Form: Crystal Form B
[2]; 40° C./75% RH (open), 3 month
  Crystal Form: Crystal Form B
[2]; 60° C./75% RH (open), 1 month
  Crystal Form: Crystal Form B
[2]; 60° C./75% RH (open), 2 month
  Crystal Form: Crystal Form B
[2]; 60° C./75% RH (open), 3 month
  Crystal Form: Crystal Form B
[2]; influencing factors 10 days, 40° C. 1 month, 40° C./75% RH and 60° C./75% RH 3 months
  Stability of the crystal form (conclusion): stable
[2]; light (visible light intensity 5000 lux and ultraviolet intensity 90 W/cm^2, open), 10 days
  Crystal Form: Crystal Form B
[2]; light control, 10 days
  Crystal Form: Crystal Form B
[3]
  Discomfort in animals after administration of the eye drops: do not cause any discomfort
[4]; eye drops 1 mg/mL, 5 mg/mL
  Therapeutic effect on the dry eye model of rat (tear secretion amount, corneal damage, tear film breakup time): good therapeutic effect
[4]; [6]
  Scoring of fluorescent staining of the cornea: 0.00 ± 0.00
  Tear secretion amount: wetted length of phenol red cotton thread: 13.78 ± 5.25 mm
[4]; [7]
  Scoring of fluorescent staining of the cornea: 4.75 ± 3.73
  Tear secretion amount: wetted length of phenol red cotton thread: 8.12 ± 2.81 mm
[4]; [8]
  Scoring of fluorescent staining of the cornea: 3.00 ± 2.78
  Tear secretion amount: wetted length of phenol red cotton thread: 9.24 ± 4.07 mm
[4]; [9]
  Scoring of fluorescent staining of the cornea: 0.13 ± 0.35
  Tear secretion amount: wetted length of phenol red cotton thread: 13.87 ± 4.45 mm
[4]; [10]
  Scoring of fluorescent staining of the cornea: 3.88 ± 2.36
  Tear secretion amount: wetted length of phenol red cotton thread: 7.16 ± 2.77 mm
[4]; [11]
  Scoring of fluorescent staining of the cornea: 1.75 ± 1.49
  Tear secretion amount: wetted length of phenol red cotton thread: 11.37 ± 3.26 mm
[4]; rats, eye drops
  Tear film breakup time: improved
[5]; eye drops 1 mg/mL, 2.5 mg/mL, 5 mg/mL
  Therapeutic effect on the dry eye model of mice (tear secretion amount and corneal damage): good therapeutic effect
[5]; [12]
  Scoring of fluorescent staining of the cornea: 0.50 ± 0.97
  Tear secretion amount: wetted length of phenol red cotton thread: 4.54 ± 1.84 mm
[5]; [13]
  Scoring of fluorescent staining of the cornea: 2.56 ± 1.50##**&
  Tear secretion amount: wetted length of phenol red cotton thread: 2.13 ± 0.69##**& mm
[5]; [14]
  Scoring of fluorescent staining of the cornea: 2.31 ± 1.35##**&
  Tear secretion amount: wetted length of phenol red cotton thread: 2.72 ± 0.91##**&& mm
[5]; [15]
  Scoring of fluorescent staining of the cornea: 0.31 ± 0.87
  Tear secretion amount: wetted length of phenol red cotton thread: 4.30 ± 1.08 mm
[5]; [16]
  Scoring of fluorescent staining of the cornea: 2.88 ± 2.53
  Tear secretion amount: wetted length of phenol red cotton thread: 2.14 ± 0.69##**& mm
[5]; [17]
  Scoring of fluorescent staining of the cornea: 2.56 ± 1.55
  Tear secretion amount: wetted length of phenol red cotton thread: 2.58 ± 0.82##**& mm
[5]; [18]
  Scoring of fluorescent staining of the cornea: 0.25 ± 0.58
  Tear secretion amount: wetted length of phenol red cotton thread: 4.28 ± 1.41 mm
[5]; [19]
  Scoring of fluorescent staining of the cornea: 2.38 ± 2.09##**&
  Tear secretion amount: wetted length of phenol red cotton thread: 2.73 ± 0.48##**&& mm
[5]; [20]
  Scoring of fluorescent staining of the cornea: 2.38 ± 1.20##**&
  Tear secretion amount: wetted length of phenol red cotton thread: 2.85 ± 0.57##**&& mm
[5]; mice, combining tear secretion amount and corneal staining score
  Concentration of eye drops with the best therapeutic effect: 5 mg/mL
